In PMC12889028, “Discovery and biological evaluation of novel N-aryl-N′-methylbenzodrazides against Schistosoma japonicum in vitro and in vivo” (Microbiology Spectrum, 2025):
Like-named read-outs stand apart in the source and are kept apart here.

What was measured:
[1] = tested on: adult worms of S. japonicum (Chinese strain); test: microbe, parasite or virus in culture; conditions: for mortality at 100 µM / LC50: Schistosoma japonicum; for LC50: read-out: LC50 (72 h)
Experimental: S. japonicum cercariae (Chinese strain) were acquired from infected Oncomelania hupensis snails (Wuxi Insect Vector Biology Co., Ltd., China) ([28]). ICR mice (6–8 weeks, 22–25 g; Hunan SJA Laboratory Animal Co., Ltd., China) were percutaneously infected via abdominal exposure to 60 ± 5 cercariae. Adult schistosomes were perfused from the hepatic portal system at 35 dpi using a modified Duvall and DeWitt method ([29]). Animals were housed under controlled conditions (22°C ± 1°C, 12 h light/dark cycle) with ad libitum access to feed and water.
Adult S. japonicum worms isolated from ICR mice were maintained in sterile culture medium (2.0 mL) comprising 77% RPMI 1640 (Lanzhou Bailing Biotech Co., Ltd.; pH 7.5, HEPES-buffered), 20% heat-inactivated fetal bovine serum (Lanzhou Minhai Bio-Engineering Co., Ltd.), and 3% penicillin-streptomycin (100×; 10,000 U/mL penicillin, 10,000 μg/mL streptomycin; New Cell & Molecular Biotech Co., Ltd., China). Incubation was performed at 37°C under 5% CO2. Test compounds were dissolved in DMSO as 0.1 M stock solutions; 2.0 μL aliquots were added to worm-containing media (final concentration: 100 μM in 0.1% DMSO). Negative controls received equivalent volumes of vehicle (0.1% DMSO in RPMI 1640). Parasite viability (motor activity, tegumental integrity, survival) was assessed every 12 h for 72 h using an Olympus CKX53 inverted microscope (n ≥ 3 independent replicates).

[2] = tested on: S. japonicum (Chinese strain); test: In vivo antischistosomal assay in infected mice (worm burden, worm morphology, liver eggs); design: species or system Schistosoma japonicum in ICR mice; conditions: mice, oral 100 mg/kg/day for 5 days; for Number of worms, Adult: adult stage (treatment from 35 dpi, sacrifice 45 dpi); for Worm burden reduction (WBR), Juvenile: juvenile stage (from 9 dpi); for Number of worms, Juvenile: juvenile stage (treatment from 9 dpi, sacrifice 45 dpi)
Experimental: (§1) Lead compounds 5, 18, and 41 (100 mg/kg) were orally administered once daily for 5 consecutive days to infected mice (n = 6/group) during two therapeutic windows: (i) Juvenile stage: treatment initiated at 9 dpi, terminal sacrifice at 45 dpi; (ii) adult stage: treatment initiated at 35 dpi, terminal sacrifice at 45 dpi. Positive controls received praziquantel (PZQ, 100 mg/kg/day ×5 days); negative controls received PBS (0.3 mL). Mice treated at 9 dpi were euthanized 36 days post-treatment; those treated at 35 dpi were euthanized 10 days post-treatment. Adult worms were perfused from the hepatic portal system and mesenteric veins. Parasite burden was quantified by worm enumeration, and worm burden reduction (WBR) was calculated:
WBR (%)=[1−Mean worm count (treated) / Mean worm count (control)]×100% .

[3] = tested on: Schistosoma mansoni; design: method as in PMID 25583726; conditions: S. mansoni mouse model; cited from earlier work
[4] = tested on: adult S. japonicum worms; test: SEM examination in vitro of tegumental damage; type: cell-based, Schistosoma japonicum; conditions: 100 μM
Experimental: Adult S. japonicum worms (male/female) underwent standardized fixation after in vitro exposure to compounds 5, 18, and 41 over a period of 12 h. First, the samples were immersed in 2.5% glutaraldehyde (prepared with 40 mL 0.2 M phosphate-buffered saline [PBS, pH 7.4], 5 mL 50% glutaraldehyde stock, and 55 mL ultrapure water) at 4°C for 24 h. After triple washes in PBS for 5 min each, worms were rinsed with deionized water for 10 min. The next dehydration sequence included ethanol gradient (50%, 70%, 80%, 90%, 100%; 5 min/step) and tert-butanol gradient (50%, 70%, 90%, 100%; 10 min/step). The worms were freeze-dried, directly sputter-covered with a thin gold layer using a Sputter Coater, and imaged using a scanning electron microscope (Quanta 450).

[5] = tested on: MCF-7 (human breast cancer) cells; test: Cytotoxicity MTT assay, MCF-7; type: cell-based; conditions: Homo sapiens, MCF7, 48 h incubation
Experimental: (§2) The cytotoxicity of compounds 5, 18, and 41 against human liver cancer (HepG2) and human breast cancer (MCF-7) cell lines in vitro was evaluated using the MTT assay, with cisplatin as a positive control. Cells were plated into 96-well plates and incubated in 100 μL of Dulbecco’s modified Eagle’s medium for 24 h. Test compounds at specified final concentrations were then added to the culture medium. After 48 h incubation, MTT dye (10 μL, 0.5 mg/mL) was added, and cells were incubated for an additional 4 h at 37°C in 5% CO2. Formazan crystals were dissolved in 100 μL DMSO per well, and absorbance at 570 nm (OD570) was measured using an ELx800 microplate reader (Bio-Tek, Winooski, VT, USA) with background subtraction. Cytotoxicity was expressed as IC50 (the concentration causing 50% reduction in cell growth compared to untreated controls). Experiments were performed in triplicate, with results presented as mean ± standard deviation.

[6] = Serum hepatic/renal function profiling of infected, treated mice; type: in vivo, ICR mice; conditions: for Serum GGT: normal range 1–15 U/L; for Serum TBIL: normal range 1.7–15.4 µM; for Serum BUN: normal range 4.9–10.4 mM; for Serum ALT: normal range 28–132 U/L; for Serum AST: normal range 59–247 U/L
Experimental: Following maturation, Schistosoma parasites initiate oviposition, with a proportion of eggs migrating via the circulatory system to hepatic tissues. This ectopic deposition induces granuloma formation that subsequently elicits a cascade of immune-mediated pathologies, ultimately compromising hepatic and renal functions in murine models. To evaluate therapeutic efficacy, retro-orbital blood sampling was performed for comprehensive hepatic function profiling, enabling systematic assessment of pharmacological impacts on schistosomiasis-associated organ damage.
as §1, with “calculated: […]” for “calculated:”

[7] = tested on: healthy mice; test: Acute oral toxicity; type: in vivo; conditions: single oral dose, healthy ICR mice
Experimental: (§3) ICR mice (n = 10/group), aged 6 to 8 weeks, received a single oral dose of compounds 5, 18, and 41 (732–2,234 mg/kg). LD50 values were determined by Probit analysis (SPSS 26.0).

[8] = Acute oral toxicity; type: in vivo; conditions: ICR, mouse, in vivo, po, single oral dose, healthy ICR mice
Experimental: as §3

[9] = tested on: HepG2 (human liver cancer) cells; test: Cytotoxicity MTT assay, HepG2; type: cell-based; conditions: Homo sapiens, HepG2, 48 h incubation
Experimental: as §2

[10] = 24 h, read-out: Mortality (%) 24 h, 100 μM, 24 h, adult worms in vitro
[11] = 36 h, read-out: Mortality (%) 36 h, 100 μM, 36 h, adult worms in vitro
[12] = 48 h, read-out: Mortality (%) 48 h, 100 μM, 48 h, adult worms in vitro
[13] = 72 h, read-out: Mortality (%) 72 h, 100 μM, 72 h, adult worms in vitro
[14] = infected mice treated in adult stage
[15] = infected mice treated in juvenile stage

O=C(Nc1ccc(Cl)c(Cl)c1)Nc1ccc(Cl)c(Cl)c1 [MMV665852, reference compound]
mortality at 100 µM [1, 10]: 100%
mortality at 100 µM [1, 11]: 100%
mortality at 100 µM [1, 12]: 100%
LC50 ([1]; 72 h): 12.5 ± 2.36 µM
mortality at 100 µM [1, 13]: 100%
Number of worms, Adult [2]: 36
Worm burden reduction (WBR), Juvenile [2]: 20%
Number of worms, Juvenile [2]: 32
In vivo antischistosomal efficacy (worm burden reduction) [3]: minimal antischistosomal efficacy

CN(NC(=O)c1ccc(Cl)c(Cl)c1)c1ccc(Br)cc1 [Compound 5]
Mortality (%) 72 h ([1]; 100 μM, 72 h, adult worms in vitro): 100%
mortality at 100 µM [1, 10]: 35%
mortality at 100 µM [1, 11]: 65%
mortality at 100 µM [1, 12]: 95%
LC50 ([1]; 72 h): 80.2 ± 1.8 µM
mortality at 100 µM [1, 13]: > 80%
Tegumental damage (SEM), female adult worms ([4]; female worms): full-thickness sucker ulceration with stromal collapse, atrophic transformation with coalescing vesicles, and advanced tissue disintegration with tegumental wrinkling
Tegumental damage (SEM), male adult worms ([4]; male worms): complete spine ablation in gynecophoric canals, suctorial constriction, and muscular layer protrusion through disrupted tegument
Morphology of worms after treatment in vivo, adult stage ([2]; adult stage): making the males thicker and shorter
Worm burden reduction (WBR), Adult ([2]; adult stage (from 35 dpi), 100 mg/kg/day): 34%
Number of worms, Adult [2]: 29
Morphology of worms after treatment in vivo, juvenile stage ([2]; juvenile stage): marked stunting of male schistosomes
Worm burden reduction (WBR), Juvenile ([2]; 100 mg/kg/day): 25%
Number of worms, Juvenile [2]: 30
IC50 [5]: 43.8 ± 2.53 µM
Serum GGT [6, 14]: 0.73 ± 0.40 U/L
Serum TBIL [6, 14]: 6.70 ± 3.39 µM
Serum BUN [6, 14]: 8.80 ± 0.96 mM
Serum ALT [6, 14]: 313.33 ± 166.21 U/L
Serum AST [6, 14]: 527.33 ± 303.66 U/L
Serum GGT [6, 15]: 0.73 ± 0.06 U/L
Serum TBIL [6, 15]: 7.48 ± 1.64 µM
Serum BUN [6, 15]: 9.83 ± 1.43 mM
Serum ALT [6, 15]: 357.67 ± 176.92 U/L
Serum AST [6, 15]: 602.33 ± 309.33 U/L
Nephrotoxicity ([6]; infected treated mice, judged from BUN): without observable nephrotoxicity
LD50 [7]: >2,000 mg/kg
LogLD50 [7]: >3.30
LD50 [8]: 1400 mg/kg
IC50 [9]: 23.2 ± 1.43 µM
